Experimental data reported in publication PMC8365602 (Journal of Medicinal Chemistry, 2021).
Read-outs that look alike come from different tables or passages of the source.

Tests used:
[1] = molecular target: T1, 5-LOX (Homo sapiens, UniProt P09917); assay: Cell-free 5-LOX activity (isolated human recombinant enzyme)
T1 sequence (P09917 1-674): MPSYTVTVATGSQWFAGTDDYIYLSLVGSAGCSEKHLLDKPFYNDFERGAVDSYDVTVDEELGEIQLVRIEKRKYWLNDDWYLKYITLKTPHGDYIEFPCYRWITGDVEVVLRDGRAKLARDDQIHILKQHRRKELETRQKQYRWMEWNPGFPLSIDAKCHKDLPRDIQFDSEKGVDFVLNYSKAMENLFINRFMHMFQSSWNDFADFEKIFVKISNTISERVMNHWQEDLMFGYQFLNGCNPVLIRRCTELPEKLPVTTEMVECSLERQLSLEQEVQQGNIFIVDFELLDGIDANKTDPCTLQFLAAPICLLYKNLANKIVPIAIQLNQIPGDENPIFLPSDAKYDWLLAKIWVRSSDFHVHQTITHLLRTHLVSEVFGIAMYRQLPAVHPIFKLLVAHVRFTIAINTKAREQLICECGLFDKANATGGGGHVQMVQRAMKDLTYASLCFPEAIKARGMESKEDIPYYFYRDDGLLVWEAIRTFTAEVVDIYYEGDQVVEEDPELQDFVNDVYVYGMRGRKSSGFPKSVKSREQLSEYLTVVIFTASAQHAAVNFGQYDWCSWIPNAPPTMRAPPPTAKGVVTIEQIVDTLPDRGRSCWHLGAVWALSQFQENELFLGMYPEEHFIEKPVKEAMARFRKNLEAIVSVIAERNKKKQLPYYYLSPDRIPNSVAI

[2] = molecular target: T1, 5-LOX; assay: 5-LOX product formation in activated PMNL;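 also: freshly isolated human PMNL in PBS pH 7.4 plus glucose, preincubated 10 min at 37 °C with compound, 5-LOX products (all-trans LTB4 isomers, 5-HETE) quantified by RP-HPLC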
Experimental: These volunteers regularly donated blood (every 8–12 weeks) and were physically inspected by a clinician.
Erythrocytes were removed by dextran sedimentation and hypotonic lysis. PMNL were obtained from the cell pellet and platelets from the supernatant.
Freshly isolated PMNL (5 × 10^6) suspended in PBS pH 7.4 with 1 mg/mL glucose or freshly withdrawn human whole blood were preincubated with the test compounds for 10 min (or as indicated) at 37 °C. […] The reaction was stopped with an equal volume of methanol.

[3] = read-out: 5-LOX enzyme residual activity at 1 µM (Table S1)
[4] = PMNL, read-out: 5-LOX PMNL residual activity at 3 µM (Table S1)
[5] = read-out: 5-LOX enzyme IC50, isolated human 5-LOX, cell-free, mean ± SEM
[6] = read-out: 5-LOX enzyme residual activity at 1 μM
[7] = PMNL, read-out: 5-LOX PMNL residual activity at 3 μM
[8] = read-out: 5-LOX PMNL IC50, 5-LOX product formation in activated PMNL, mean ± SEM

Structure (SMILES)	IC50 [1]	remaining activity at 1 µM [1, 3]	IC50 [2]	remaining activity at 3 µM [2, 4]	IC50 [1, 5]	remaining activity at 1 µM [1, 6]	remaining activity at 3 µM [2, 7]	IC50 [2, 8]	remaining activity at 1 µM ([2]; PMNL, read-out: 5-LOX PMNL residual activity at 1 µM (Table S1, cell marked b))
CC(C)=CCC/C(C)=C/CC/C(C)=C/CC[C@]1(C)CCc2c(C=O)c(O)cc(C)c2O1 [Compound 7]	> 1 µM	74.5 ± 4.3%	> 3 µM	87.1 ± 8%	–	–	–	–	–
Cc1cc(O)c(C=O)c2c1O[C@](C)(CCC[C@H](C)CCC[C@H](C)CCCC(C)C)CC2 [Compound 3]	> 1 µM	94.6 ± 3.5%	> 3 µM	92.2 ± 6.3%	–	–	–	–	–
C/C(=C\CC[C@]1(C)CCc2c(C)c(O)c(C)c(C)c2O1)CC/C=C(\C)CCC(=O)O [Compound 15a, (4E,8E)-11-((R)-6-Hydroxy-2,5,7,8-tetramethylchroman-2-yl)-4,8-dimethylundeca-4,8-dienoic Acid]	–	–	–	–	0.44 ± 0.07 µM	11.5 ± 1.8%	10.6 ± 5.8%	0.45 ± 0.12 µM	–
COc1ccc(C2OCC(=CCC/C(C)=C/CC/C(C)=C/CC[C@]3(C)CCc4cc(O)cc(C)c4O3)CO2)cc1OC (some centres unmarked) [Compound 44]	0.21 ± 0.14 µM	–	–	–	–	12.7 ± 9.3%	–	–	–
C/C(=C\CC/C(C)=C/CC[C@]1(C)CCc2cc(OCC(N)=O)cc(C)c2O1)CCC=C(CO)CO [Compound 32, 2-(((R)-2-((3E,7E)-13-Hydroxy-12-(hydroxymethyl)-4,8-dimethyltrideca-3,7,11-trien-1-yl)-2,8-dimethylchroman-6-yl)oxy)acetamide]	–	–	–	–	> 1 µM	99.8 ± 5.6%	–	–	–
C/C(=C\CC/C(C)=C/CC[C@]1(C)CCc2c(CN(C)C)c(O)cc(C)c2O1)CC/C=C(\C)C(=O)O [Compound 23]	–	–	–	–	0.07 ± 0.02 µM	7.9 ± 3.6%	33.1 ± 8%	2.06 ± 0.45 µM	–
C/C(=C\CC/C(C)=C/CC[C@]1(C)CCc2c(CN(C)C)c(O)c(CN(C)C)c(C)c2O1)CC/C=C(\C)C(=O)O [Compound 24]	–	–	–	–	> 1 µM	95.2 ± 7.9%	82.1 ± 24.1%	> 3 µM	–
C/C(=C\CC/C(C)=C/CC[C@]1(C)CCc2c(CN3CCN(C)CC3)c(O)cc(C)c2O1)CCC=C(CO)CO [Compound 39, 2-((4E,8E)-11-((R)-6-Hydroxy-2,8-dimethyl-5-((4-methylpiperazin-1-yl)methyl)chroman-2-yl)-4,8-dimethylundeca-4,8-dien-1-ylidene)propane-1,3-diol]	–	–	–	–	0.31 ± 0.07 µM	16 ± 1.9%	21.6 ± 6.8%	2.03 ± 0.16 µM	–
C/C(=C\CC/C(C)=C/CC[C@]1(C)CCc2c(C)c(O)c(C=O)c(C)c2O1)CCC=C(CO)CO [Compound 33]	–	–	–	–	0.17 ± 0.05 µM	8.9 ± 3.5%	7.5 ± 2.2%	1.38 ± 0.28 µM	–
Cc1cc(O)c(C(=O)O)c2c1O[C@](C)(CCC[C@H](C)CCC[C@H](C)CCCC(C)C)CC2 [Compound 5]	> 1 µM	54.6 ± 5.8%	> 3 µM	80.8 ± 0.6%	–	–	–	–	–
C/C(=C\CC/C(C)=C/CC[C@]1(C)CCc2c(C)c(O)cc(C)c2O1)CCC=C(CO)CO [Compound 27b]	–	–	–	–	0.09 ± 0.02 µM	0%	0.9 ± 0.5%	0.1 ± 0.02 µM	–
COc1ccc(C2OCC(=CCC/C(C)=C/CC/C(C)=C/CC[C@]3(C)CCc4c(C)c(O)c(C=O)c(C)c4O3)CO2)cc1OC (some centres unmarked) [Compound 47]	–	–	–	–	> 1 µM	58.7 ± 4.6%	84 ± 8.5%	> 3 µM	–
C/C(=C\CC[C@]1(C)CCc2cc(O)cc(C)c2O1)CC/C=C/C(=O)O [Compound 16, (2E,6E)-9-[(2R)-6-Hydroxy-2,8-dimethyl-3,4-dihydro-2H-1-benzopyran-2-yl]-6-methylnona-2,6-dienoic Acid]	–	–	–	–	0.92 ± 0.04 µM	47.3 ± 1.1%	77 ± 3.9%	> 3 µM	–
C/C(=C\CC/C(C)=C/CC[C@]1(C)CCc2c(C=O)c(O)cc(C)c2O1)CCC=C(CO)CO [Compound 34]	–	–	–	–	0.17 ± 0.06 µM	13.8 ± 4.4%	6.1 ± 0.1%	1.81 ± 0.32 µM	–
Cc1c(C=O)c(O)c(Cl)c2c1O[C@](C)(CCC[C@H](C)CCC[C@H](C)CCCC(C)C)CC2 [Compound 2, (R)-5-Chloro-6-hydroxy-2,8-dimethyl-2-((4R,8R)-4,8,12-trimethyltridecyl)chromane-7-carbaldehyde]	> 1 µM	72.9 ± 5.6%	> 3 µM	110 ± 10.7%	–	–	–	–	–
COc1ccc(C2OCC(=CCC/C(C)=C/CC/C(C)=C/CC[C@]3(C)CCc4cc(OCCCC(=O)O)cc(C)c4O3)CO2)cc1OC (stereo partly drawn) [Compound 45, 4-(((2R)-2-((3E,7E)-11-(2-(3,4-Dimethoxyphenyl)-1,3-dioxan-5-ylidene)-4,8-dimethylundeca-3,7-dien-1-yl)-2,8-dimethylchroman-6-yl)oxy)butanoic Acid]	> 1 µM	–	–	–	–	83 ± 7.6%	–	–	–
C/C(=C\CC[C@]1(C)CCc2cc(O)cc(C)c2O1)C(=O)O [Compound 18, (R,E)-5-(6-Hydroxy-2,8-dimethylchroman-2-yl)-2-methylpent-2-enoic Acid]	–	–	–	–	> 1 µM	56.4 ± 18.3%	88.8 ± 6.4%	> 3 µM	–
COC(=O)/C(C)=C/CC/C(C)=C/CC/C(C)=C/CC[C@]1(C)CCc2c(c(C)cc(O)c2C(=O)OC)O1 [Compound 25, (R)-Methyl-6-hydroxy-2-((3E,7E,11E)-13-methoxy-4,8,12-trimethyl-13-oxotrideca-3,7,11-trien-1-yl)-2,8-dimethylchroman-5-carboxylate]	–	–	–	–	> 1 µM	54.5 ± 8.4%	79.9 ± 3.6%	> 3 µM	–
C/C(=C\CC/C(C)=C/CC[C@]1(C)CCc2cc(O)cc(C)c2O1)CC/C=C(/C=O)CO [Compound 11]	0.12 ± 0.05 µM	0.4 ± 0.3%	0.57 ± 0.09 µM	–	–	–	–	–	17.6 ± 1.3%
COC(=O)C(C)CCC/C(C)=C/CC/C(C)=C/CC[C@]1(C)CCc2cc(OC)cc(C)c2O1 (stereo partly drawn) [Compound 22, (6E,10E)-Methyl-13-((R)-6-methoxy-2,8-dimethylchroman-2-yl)-2,6,10-trimethyltrideca-6,10-dienoate]	–	–	–	–	> 1 µM	88.7 ± 4.3%	–	–	–
C/C(=C\CC/C(C)=C/CC[C@]1(C)CCc2c(CN3CCCCC3)c(O)cc(C)c2O1)CCC=C(CO)CO [Compound 38, 2-((4E,8E)-11-((R)-6-Hydroxy-2,8-dimethyl-5-(piperidin-1-ylmethyl)chroman-2-yl)-4,8-dimethylundeca-4,8-dien-1-ylidene)propane-1,3-diol]	–	–	–	–	0.11 ± 0.02 µM	5.1 ± 0.9%	11.7 ± 1.8%	1.95 ± 0.07 µM	–
COc1cc(C)c2c(c1)CC[C@@](C)(CC/C=C(\C)CC/C=C(\C)CCCC(C)C(=O)O)O2 (stereo partly drawn) [Compound 20, (6E,10E)-13-((R)-6-Methoxy-2,8-dimethylchroman-2-yl)-2,6,10-trimethyltrideca-6,10-dienoic Acid]	–	–	–	–	> 1 µM	98.1 ± 1.3%	–	–	–
CC(=O)c1cc2c(C)c3c(c(C)c2oc1=O)CC[C@@](C)(CC/C=C(\C)CC/C=C(\C)CCC=C(CO)CO)O3 [Compound 41, (R)-3-Acetyl-7-((3E,7E)-13-hydroxy-12-(hydroxymethyl)-4,8-dimethyltrideca-3,7,11-trien-1-yl)-5,7,10-trimethyl-8,9-dihydropyrano[2,3-g]chromen-2(7H)-one]	–	–	–	–	0.63 ± 0.13 µM	35.1 ± 5.7%	12.4 ± 0.7%	1.25 ± 0.2 µM	–
Cc1cc(O)cc2c1O[C@](C)(CCC=C(CO)CO)CC2 [Compound 29, (R)-2-(3-(6-Hydroxy-2,8-dimethylchroman-2-yl)propylidene)propane-1,3-diol]	–	–	–	–	> 1 µM	79.7 ± 3.5%	86.4 ± 0.8%	> 3 µM	–
COC(=O)C(C)CCC/C(C)=C/CC/C(C)=C/CC[C@]1(C)CCc2cc(O)cc(C)c2O1 (stereo partly drawn) [Compound 21, (6E,10E)-Methyl-13-((R)-6-hydroxy-2,8-dimethylchroman-2-yl)-2,6,10-trimethyltrideca-6,10-dienoate]	–	–	–	–	0.17 ± 0.01 µM	5.8 ± 1.7%	14.1 ± 6%	1.14 ± 0.39 µM	–
C/C(=C\CC/C(C)=C/CC[C@]1(C)CCc2c(CN3CCOCC3)c(O)cc(C)c2O1)CCC=C(CO)CO [Compound 37, 2-((4E,8E)-11-((R)-6-Hydroxy-2,8-dimethyl-5-(morpholinomethyl)chroman-2-yl)-4,8-dimethylundeca-4,8-dien-1-ylidene)propane-1,3-diol]	–	–	–	–	0.12 ± 0.03 µM	3.9 ± 0.6%	11.3 ± 3.3%	1.74 ± 0.09 µM	–
C/C(=C\CC[C@]1(C)CCc2cc(O)cc(C)c2O1)CCC(O)C(C)(O)CCC=C(CO)CO (some centres unmarked) [Compound 30]	–	–	–	–	0.38 ± 0.11 µM	12.2 ± 4.1%	–	–	–
C/C(=C\CC/C(C)=C/CC[C@]1(C)CCc2cc(O)c(C)c(C)c2O1)CC/C=C(\C)C(=O)O [Compound 13c]	–	–	–	–	–	4.1 ± 3.6%	1.6 ± 1.6%	–	–
